Earlier results as cited in paper PMC7673724 (Science Advances, 2020).

Test system: Rubisco
Settings: control used to normalize array signal (one unit of binding)

In the case of “TRSVLPANWRQELESLRN [control EPYC1 peptide]”, the “Binding to Rubisco of the positive control peptide” value is listed as “known to bind to Rubisco”.
